Data taken from patent US9447075B2, “Pyridazine derivatives as EAAT2 activators” (The Brigham and Women's Hospital, Inc., priority 2011, dated 2016).

System: EAAT2
Assay: EAAT2 protein levels in PA-EAAT2 cells by Western blot
Type: cell-based, human
Settings: for Fold increase for EAAT2, 4 h / Fold increase for EAAT2, 24 h: compound 10 μM, PA-EAAT2 cells, relative to DMSO controls, na = not active; for Fold increase for EAAT2, 4 h: 4 h incubation; for Fold increase for EAAT2, 24 h: 24 h incubation; for SAR comparison of activity on EAAT2 protein levels, in words: relative to parent/comparator analogue, Tables 1-4; for Improvement of potency/activity compared to 1: compared to compound 1, Table 4
Protocol: All of the derivates of 1 were initially evaluated in PA-EAAT2 cells^3 (a primary astrocyte line stably expressing EAAT2 mRNAs) following compound (10 μM) incubation for 4 and 24 h before harvesting and measuring EAAT2 levels by Western blot analysis. The fold increases in EAAT2 protein levels relative to DMSO controls are reported (Tables 1-4).
Characterization and efficacy studies of a compound, Compound 212320 (FIG. 6A) is shown. […] In the absence of serum, PA-EAAT2 cells express low amounts of EAAT2 protein, although the recombinant EAAT2 mRNA are expressed (translational silencing); however, EAAT2 protein levels are increased when an activator is added to the culture (translational activation). This cell line was used for high-throughput screening to identify EAAT2 translational activators. To prioritize candidate compounds, we initially evaluated activation of EAAT2 protein in PA-EAAT2 cells. Promising compounds were further evaluated in primary dissociated neuron and astrocyte mixed cultures and then in mice. FIG. 6 presents the characterization of Compound 212320 in PA-EAAT2 cells. Compound 212320 increased EAAT2 protein levels in a dose—(FIG. 6B) and time—(FIG. 6C) dependent manner. Importantly, the induction occurred in a short amount of time (within 1-2 hr) and was sustained even up to 72 hr (data not show). Additionally, induction occurred at low nanomolar concentrations. […] (FIG. 6D).

SMILES	Fold increase for EAAT2, 4 h [fold]	Fold increase for EAAT2, 24 h [fold]	SAR comparison of activity on EAAT2 protein levels, in words	Improvement of potency/activity compared to 1	Activity (EAAT2 increase), in words (compounds 23-27 assessed)	EAAT2 protein levels, dose dependence (after 24 h exposure)
Fc1cc(F)c(CSc2ccc(-c3ccccn3)nn2)c(F)c1 [Compound 7-26]	1.6 ± 1.0	2.4 ± 0.6	did not result in significant improvement			
Cc1ccccc1CS(=O)(=O)c1ccc(-c2ccccn2)nn1 [Compound 9-2]	2.3 ± 0.4	1.1 ± 0.2	detrimental			
c1ccc(-c2ccc(SC3CCCc4ccccc43)nn2)nc1 (racemic) [Compound 7-33]		5.3 ± 1.1		about 3 fold		
Cc1cccc(C)c1COc1ccc(-c2ccccn2)nn1 [Compound 8-3]	2.1 ± 1.2	3.2 ± 1.4				
Fc1ccc(CSc2ccc(-c3ccccn3)nn2)c(Cl)c1 [Compound 7-35]	1.6 ± 0.6	1.7 ± 0.4				
Clc1cccc(Cl)c1CSc1ccc(-c2ccccn2)nn1 [Compound 7-22]	1.5 ± 0.8	3.9 ± 0.4		two-fold		
Clc1ccc(CSc2ccc(-c3ccccn3)nn2)c(Cl)c1 [Compound 7-21]	1.8 ± 0.5		equivalent to 1			
Cc1ccc(-c2ccc(SCc3c(F)cccc3Cl)nn2)cc1 [Compound 7-3]	1.2 ± 0.2	2.3 ± 0.7				
Oc1ccc(-c2ccccn2)nn1 [Compound 5-1]	1.5 ± 0.5	1.6 ± 1.0				
Fc1ccc(Sc2ccc(-c3ccccn3)nn2)c(Cl)c1 [Compound 7-34]	1.3 ± 0.1	2.5 ± 0.7				
Clc1ccc(Cl)c(CSc2ccc(-c3ccccn3)nn2)c1 [Compound 7-20]	1.4 ± 0.1	2.5 ± 0.4	equivalent to 1			
Fc1cccc(Cl)c1COc1ccc(-c2ccccn2)nn1 [Compound 8-2]	1.1 ± 0.3	2.9 ± 0.4				
c1ccc(CSc2ccc(-c3ccccn3)cc2)cc1 [Compound 19]	1.2 ± 0.5	1.1 ± 0.4				
Cc1ccc(CSc2ccc(-c3ccccn3)nn2)cc1 [Compound 7-10]	2.1 ± 1.1	2.6 ± 0.4				
Cc1ccccc1COc1ccc(-c2ccccn2)nn1 [Compound 8-1]	2.0 ± 0.9	2.5 ± 0.5				
CCCNC(=O)c1ccc(-c2ccccn2)nn1 [Compound 17-1]		1.2 ± 0.2	not tolerated			
Cc1ccccc1CSc1ccc(-c2cccnc2)nn1 [Compound 7-5]	1.5 ± 0.4		reduced activity			
Fc1ccc(CSc2ccc(-c3ccccn3)nn2)cc1 [Compound 7-24]	2.5 ± 0.6	2.6 ± 0.3	did not result in significant improvement			
Cc1ccccc1CSc1ccc(-c2ccccn2)cn1 [Compound 22]	1.3 ± 0.6					

SMILES	Fold increase for EAAT2, 4 h [fold]	Fold increase for EAAT2, 24 h [fold]	SAR comparison of activity on EAAT2 protein levels, in words	Improvement of potency/activity compared to 1	Activity (EAAT2 increase), in words (compounds 23-27 assessed)	EAAT2 protein levels, dose dependence (after 24 h exposure)
Cc1ccccc1COc1ccc(-c2ccccn2)nc1 [Compound 15]	1.5 ± 0.3					
CC(C)OC(=O)c1ccc(-c2ccccn2)nn1 [Compound 27]					active	
Fc1cccc(Cl)c1CSc1ccc(-c2ccccn2)nn1 [Compound 1]		2.0 ± 0.8				dose-dependent increase
Clc1cccc(CSc2ccc(-c3ccccn3)nn2)c1 [Compound 7-18]	2.1 ± 0.3	4.1 ± 0.5		two-fold		
CC(Oc1ccc(-c2ccccn2)nn1)c1c(F)cccc1Cl (racemic) [Compound 8-4]	1.6 ± 0.2	3.0 ± 0.7				
Cc1ccc(CSc2ccc(-c3ccncc3)nn2)cc1 [Compound 7-11]	1.3 ± 0.1	2.4 ± 0.6	reduced activity			
Clc1ccccc1CSc1ccc(-c2cccnc2)nn1 [Compound 7-8]	1.2 ± 0.4	1.2 ± 0.3	reduced activity			
Clc1cccc(CSc2ccc(-c3ccccn3)nn2)c1Cl [Compound 7-19]		2.4 ± 0.4	equivalent to 1			
CCSc1ccc(-c2ccccn2)nn1 [Compound 7-36]	1.6 ± 0.7	1.9 ± 0.9	essentially the same potency as 1			
Fc1cccc(F)c1CSc1ccc(-c2ccccn2)nn1 [Compound 7-25]	2.1 ± 1.4	2.2 ± 0.7	did not result in significant improvement			
Clc1ccccc1CSc1ccc(-c2ccccn2)nn1 [Compound 7-7]	2.1 ± 1.4	4.0 ± 0.3		two-fold		
Cc1ccc(Sc2ccc(-c3ccccn3)nn2)c(C)c1 [Compound 7-29]	1.2 ± 0.3	2.2 ± 0.3	decreased potency			
Clc1ccccc1CCSc1ccc(-c2ccccn2)nn1 [Compound 7-31]	1.7 ± 0.2	4.8 ± 0.6	more potent			
Cc1cccc(CSc2ccc(-c3ccccn3)nn2)c1 [Compound 7-27]	2.0 ± 0.2	2.8 ± 0.5	less potent			
Cc1ccccc1CCSc1ccc(-c2ccccn2)nn1 [Compound 7-32]	1.2 ± 0.3	2.8 ± 0.4	exception			
Cc1ccccc1CSc1ccc(-c2ccccc2)nn1 [Compound 7-6]	1.1 ± 0.1	2.0 ± 0.4	reduced activity			
Sc1ccc(-c2ccccn2)nn1 [Compound 6-1]		2.0 ± 0.8	essentially the same potency as 1			
Fc1cccc(Cl)c1CSc1ccc(-c2cccnc2)nn1 [Compound 7-1]		2.3 ± 0.8	reduced activity			
Fc1cccc(Cl)c1CSc1ccc(-c2ccncc2)nn1 [Compound 7-2]		1.9 ± 0.9	reduced activity			
